Test results reported in the NIST ThermoML archive (doi:10.1021/je034177v).

Experiment: xn = mol fraction of the nth substance listed
Settings: 101 kPa, Liquid; for speed of sound: Pulse-echo method; for mass density: Vibrating tube method

ClCCCCCCl [1,5-dichloropentane] + CCCCCCCCCCCC
Settings	mass density [kg/m3]	speed of sound [m/s]
278.15 K, x1 = 0.05237	769.83	1353.9
278.15 K, x1 = 0.1014	780	1351.3
278.15 K, x1 = 0.2008	802.34	1347.1
278.15 K, x1 = 0.3039	827.99	1344.1
278.15 K, x1 = 0.3945	852.98	1342.4
278.15 K, x1 = 0.4983	884.91	1342.1
278.15 K, x1 = 0.6014	920.97	1343.6
278.15 K, x1 = 0.6987	959.17	1347.1
278.15 K, x1 = 0.7975	1003.24	1353.4
278.15 K, x1 = 0.9021	1056.96	1363.5
278.15 K, x1 = 0.9497	1084.25	1369.5
278.15 K, x1 = 1	1115.28	1376.6
283.15 K, x1 = 0.05237	766.19	1334.4
283.15 K, x1 = 0.1014	776.32	1331.9
283.15 K, x1 = 0.2008	798.55	1327.8
283.15 K, x1 = 0.3039	824.08	1324.9
283.15 K, x1 = 0.3945	848.97	1323.6
283.15 K, x1 = 0.4983	880.76	1323.4
283.15 K, x1 = 0.6014	916.68	1325.1
283.15 K, x1 = 0.6987	954.72	1328.9
283.15 K, x1 = 0.7975	998.63	1335.3
283.15 K, x1 = 0.9021	1052.15	1345.6
283.15 K, x1 = 0.9497	1079.35	1351.7
283.15 K, x1 = 1	1110.26	1358.9
288.15 K, x1 = 0.05237	762.54	1314.6
288.15 K, x1 = 0.1014	772.61	1312.2
288.15 K, x1 = 0.2008	794.74	1308.2
288.15 K, x1 = 0.3039	820.16	1305.7
288.15 K, x1 = 0.3945	844.93	1304.4
288.15 K, x1 = 0.4983	876.58	1304.5
288.15 K, x1 = 0.6014	912.36	1306.4
288.15 K, x1 = 0.6987	950.25	1310.3
288.15 K, x1 = 0.7975	993.99	1317
288.15 K, x1 = 0.9021	1047.3	1327.5
288.15 K, x1 = 0.9497	1074.4	1333.7
288.15 K, x1 = 1	1105.2	1341
293.15 K, x1 = 0.05237	758.89	1295.1
293.15 K, x1 = 0.1014	768.91	1292.8
293.15 K, x1 = 0.2008	790.94	1289
293.15 K, x1 = 0.3039	816.25	1286.6
293.15 K, x1 = 0.3945	840.9	1285.5
293.15 K, x1 = 0.4983	872.42	1285.7
293.15 K, x1 = 0.6014	908.04	1287.9
293.15 K, x1 = 0.6987	945.78	1292
293.15 K, x1 = 0.7975	989.35	1298.8
293.15 K, x1 = 0.9021	1042.45	1309.5
293.15 K, x1 = 0.9497	1069.46	1315.8
293.15 K, x1 = 1	1100.16	1323.2
298.15 K, x1 = 0.05237	755.23	1275.6
298.15 K, x1 = 0.1014	765.22	1273.5
298.15 K, x1 = 0.2008	787.14	1269.8
298.15 K, x1 = 0.3039	812.33	1267.5
298.15 K, x1 = 0.3945	836.86	1266.6
298.15 K, x1 = 0.4983	868.24	1267
298.15 K, x1 = 0.6014	903.71	1269.3
298.15 K, x1 = 0.6987	941.31	1273.7
298.15 K, x1 = 0.7975	984.72	1280.7
298.15 K, x1 = 0.9021	1037.61	1291.6
298.15 K, x1 = 0.9497	1064.51	1298
298.15 K, x1 = 1	1095.11	1305.4
303.15 K, x1 = 0.05237	751.58	1256.4
303.15 K, x1 = 0.1014	761.51	1254.2
303.15 K, x1 = 0.2008	783.32	1250.7
303.15 K, x1 = 0.3039	808.4	1248.6
303.15 K, x1 = 0.3945	832.82	1247.8
303.15 K, x1 = 0.4983	864.07	1248.4
303.15 K, x1 = 0.6014	899.38	1250.9
303.15 K, x1 = 0.6987	936.82	1255.4
303.15 K, x1 = 0.7975	980.06	1262.6
303.15 K, x1 = 0.9021	1032.76	1273.8
303.15 K, x1 = 0.9497	1059.56	1280.3
303.15 K, x1 = 1	1090.07	1287.9
308.15 K, x1 = 0.05237	747.91	1237.3
308.15 K, x1 = 0.1014	757.8	1235.2
308.15 K, x1 = 0.2008	779.49	1231.8
308.15 K, x1 = 0.3039	804.47	1229.8
308.15 K, x1 = 0.3945	828.76	1229.2
308.15 K, x1 = 0.4983	859.88	1230
308.15 K, x1 = 0.6014	895.05	1232.7
308.15 K, x1 = 0.6987	932.33	1237.4
308.15 K, x1 = 0.7975	975.41	1244.8
308.15 K, x1 = 0.9021	1027.91	1256.1
308.15 K, x1 = 0.9497	1054.61	1262.7
308.15 K, x1 = 1	1085.02	1270.3
313.15 K, x1 = 0.05237	744.24	1218.4
313.15 K, x1 = 0.1014	754.07	1216.4
313.15 K, x1 = 0.2008	775.66	1213.2
313.15 K, x1 = 0.3039	800.53	1211.4
313.15 K, x1 = 0.3945	824.71	1210.9
313.15 K, x1 = 0.4983	855.7	1211.8
313.15 K, x1 = 0.6014	890.7	1214.6
313.15 K, x1 = 0.6987	927.83	1219.6
313.15 K, x1 = 0.7975	970.74	1227
313.15 K, x1 = 0.9021	1023.05	1238.5
313.15 K, x1 = 0.9497	1049.66	1245.2
313.15 K, x1 = 1	1079.97	1253
318.15 K, x1 = 0.05237	740.56	1199.7
318.15 K, x1 = 0.1014	750.34	1197.7
318.15 K, x1 = 0.2008	771.82	1194.6
318.15 K, x1 = 0.3039	796.59	1192.9
318.15 K, x1 = 0.3945	820.64	1192.5
318.15 K, x1 = 0.4983	851.51	1193.6
318.15 K, x1 = 0.6014	886.36	1196.7
318.15 K, x1 = 0.6987	923.36	1201.7
318.15 K, x1 = 0.7975	966.1	1209.5
318.15 K, x1 = 0.9021	1018.21	1221.1
318.15 K, x1 = 0.9497	1044.74	1227.9
318.15 K, x1 = 1	1074.95	1235.8
323.15 K, x1 = 0.05237	736.88	1181
323.15 K, x1 = 0.1014	746.61	1179.3
323.15 K, x1 = 0.2008	767.98	1176.2
323.15 K, x1 = 0.3039	792.63	1174.7
323.15 K, x1 = 0.3945	816.57	1174.4
323.15 K, x1 = 0.4983	847.29	1175.6
323.15 K, x1 = 0.6014	882	1178.8
323.15 K, x1 = 0.6987	918.84	1184.1
323.15 K, x1 = 0.7975	961.42	1191.9
323.15 K, x1 = 0.9021	1013.35	1203.8
323.15 K, x1 = 0.9497	1039.77	1210.6
323.15 K, x1 = 1	1069.89	1218.7
328.15 K, x1 = 0.05237	733.17	1162.7
328.15 K, x1 = 0.1014	742.86	1160.8
328.15 K, x1 = 0.2008	764.14	1157.9
328.15 K, x1 = 0.3039	788.68	1156.5
328.15 K, x1 = 0.3945	812.52	1156.4
328.15 K, x1 = 0.4983	843.12	1157.7
328.15 K, x1 = 0.6014	877.69	1161.2
328.15 K, x1 = 0.6987	914.4	1166.5
328.15 K, x1 = 0.7975	956.8	1174.5
328.15 K, x1 = 0.9021	1008.57	1186.6
328.15 K, x1 = 0.9497	1034.9	1193.5
328.15 K, x1 = 1	1064.93	1201.6
